In patent US20240016781A1, “TREATMENT OF KRAS MUTANT CANCERS” (MEI Pharma, Inc., priority 2020, published 2024):
Read-outs that look alike come from different tables or passages of the source.

What was measured:
Solid Tumors = assay: Monotherapy Phase 1 study in solid tumors, 2 weeks on/1 week off schedule; format: in vivo, human
[1] = test system: Venetoclax Sensitive and Resistant Cell Lines; assay: Voruciclib + venetoclax synergy in venetoclax sensitive and resistant cell lines; format: cell-based
Text: FIG. 4A: Ven Sensitive; FIG. 4B: Ven Resistant.

[2] = test system: cancer cell lines with KRAS mutations (G12A, G12C, G12D, G12S, G12V, G13C, G13D, Q61H); assay: MTS and Cell Titer Glo growth assays in ~20 KRAS mutant cancer cell lines; format: cell-based; details: ~20 cancer cell lines with KRAS mutations
Procedure: Voruciclib is an oral inhibitor of CDKs 9, 4, 6, and 1 currently being tested in Phase 1B clinical trials for B-cell malignancies and acute myeloid leukemia. Voruciclib inhibition of CDK9 leads to decreased expression of transcriptional targets of RNA Pol II, such as Mcl1 and MYC. To test whether Voruciclib could be effective in cancers driven by dysregulated KRAS-MYC signaling, ˜20 cancer cell lines with KRAS mutations (G12A, G12C, G12D, G12S, G12V, G13C, G13D, Q61H) were treated in preclinical studies with Voruciclib. MTS and Cell Titer Glo assays were used to monitor growth in vitro. […] To investigate MYC protein stability, MIA PACA-2 (G12C) cells were treated with 4 μM Voruciclib for 5-240 min, followed by SDS-PAGE and Western Blotting analysis with α-MYC and α-pSer62-MYC antibodies. […] A 60% decrease in pSer62 was observed after 5 min that reached 80% by 60 min. […] The ability of Voruciclib to inhibit tumor growth in vivo was also tested in murine xenograft models. KRAS mutant human cancer cells HCT-116 (CRC, KRAS G13D), SW-480 (CRC, KRAS G12V), and H-460 (NSCLC, KRAS Q61H) were injected subcutaneously into SCID mice. Once tumors reached 5-10 mm in diameter, Voruciclib or vehicle were administered orally at 50, 100, or 200 mg/kg OD for 11-14 days. Tumors were measured every 2-3 days, and growth inhibition relative to control was calculated. […]

[3] = PK of voruciclib, 2 weeks of daily dosing followed by 1 week without dosing in a 21-day cycle (Table 3); format: in vivo, human; details: for Accumulation Ratio (AUC0-24 h): Day 13/Day 1, 2 weeks daily dosing/1 week off; for AUC(0-inf) / Cmax / half-life / AUC(0-t) / Vd/F / Tmax: human, plasma, oral; for Vd/F: read-out: Vz/F; for Tmax: median
Text: Voruciclib half life is designated as t½ in the tables (expressed in hours).
Voruciclib volume of distribution is designated as Vz/F (expressed in liters).

MIA PaCa-2 xenografts = assay: CIVO intratumoral microinjection, MIA PaCa-2 xenografts; format: in vivo; details: MIA PaCa-2 PDAC tumors
Text: Replicate Tumors: n≥5. Time Point: 24 hr. Cell Line; MIA PaCa-2. Biomarker: CC3, H&E.
The original paraffin embedded fixed tumor blocks were sliced and stained for MCL-1 and total MYC using antibodies specific to each. The MYC staining is in red. The MCL-1 staining is in yellow. The nuclei are stained in blue. For MYC and MCL-1, a decrease in the signal indicates an on-target effect of VOR.

[4] = 2 weeks on/i week off schedule, 75 to 850 mg, 29 pts
[5] = Phase 1 monotherapy studies in solid tumors (both schedules)
[6] = 75 mg, Day 1, 2 weeks daily dosing/1 week off, mean
[7] = 75 mg, Day 13, 2 weeks daily dosing/1 week off, mean
[8] = 150 mg, Day 1, 2 weeks daily dosing/1 week off, mean
[9] = 150 mg, Day 13, 2 weeks daily dosing/1 week off, mean
[10] = 300 mg, Day 1, 2 weeks daily dosing/1 week off, mean
[11] = 300 mg, Day 13, 2 weeks daily dosing/1 week off, n = 1
[12] = 600 mg, Day 1, 2 weeks daily dosing/1 week off, mean
[13] = 600 mg, Day 13, 2 weeks daily dosing/1 week off, mean
[14] = 850 mg, Day 1, 2 weeks daily dosing/1 week off, mean
[15] = 850 mg, Day 13, 2 weeks daily dosing/1 week off, mean

- myelosuppression (Solid Tumors; [5]): no evidence of myelosuppression
- Accumulation Ratio (AUC0-24 h) ([3]; 75 mg, mean): 2.937
- Accumulation Ratio (AUC0-24 h) ([3]; 150 mg, mean): 2.129
- Accumulation Ratio (AUC0-24 h) ([3]; 300 mg, mean): 2.602
- Accumulation Ratio (AUC0-24 h) ([3]; 600 mg, mean): 2.064
- Accumulation Ratio (AUC0-24 h) ([3]; 850 mg, mean): 3.139
- AUC(0-inf) [3, 6]: 4210 ng·h/mL
- Cmax [3, 6]: 193 ng/mL
- half-life [3, 6]: 21.7 h
- AUC(0-t) ([3]; 75 mg, Day 1, 2 weeks daily dosing/1 week off, mean, read-out: AUC0-24): 2280 ng·h/mL
- AUC(0-t) ([3]; 75 mg, Day 1, 2 weeks daily dosing/1 week off, mean, read-out: AUC0-t): 2280 ng·h/mL
- Vd/F [3, 6]: 1280 L
- Tmax ([3]; 75 mg, Day 1, 2 weeks daily dosing/1 week off): 4 h
- AUC(0-inf) [3, 7]: 8660 ng·h/mL
- Cmax [3, 7]: 313 ng/mL
- half-life [3, 7]: 16.9 h
- AUC(0-t) ([3]; 75 mg, Day 13, 2 weeks daily dosing/1 week off, mean, read-out: AUC0-24): 5290 ng·h/mL
- AUC(0-t) ([3]; 75 mg, Day 13, 2 weeks daily dosing/1 week off, mean, read-out: AUC0-t): 5290 ng·h/mL
- Vd/F [3, 7]: 349 L
- Tmax ([3]; 75 mg, Day 13, 2 weeks daily dosing/1 week off): 4 h
- AUC(0-inf) [3, 8]: 15800 ng·h/mL
- Cmax [3, 8]: 456 ng/mL
- half-life [3, 8]: 32.5 h
- AUC(0-t) ([3]; 150 mg, Day 1, 2 weeks daily dosing/1 week off, mean, read-out: AUC0-24): 6980 ng·h/mL
- AUC(0-t) ([3]; 150 mg, Day 1, 2 weeks daily dosing/1 week off, mean, read-out: AUC0-t): 6980 ng·h/mL
- Vd/F [3, 8]: 1650 L
- Tmax ([3]; 150 mg, Day 1, 2 weeks daily dosing/1 week off): 4 h
- AUC(0-inf) [3, 9]: 28200 ng·h/mL
- Cmax [3, 9]: 896 ng/mL
- half-life [3, 9]: 26.1 h
- AUC(0-t) ([3]; 150 mg, Day 13, 2 weeks daily dosing/1 week off, mean, read-out: AUC0-24): 13000 ng·h/mL
- AUC(0-t) ([3]; 150 mg, Day 13, 2 weeks daily dosing/1 week off, mean, read-out: AUC0-t): 13000 ng·h/mL
- Vd/F [3, 9]: 459 L
- Tmax ([3]; 150 mg, Day 13, 2 weeks daily dosing/1 week off): 4 h
- AUC(0-inf) [3, 10]: 148000 ng·h/mL
- Cmax [3, 10]: 1000 ng/mL
- half-life [3, 10]: 138 h
- AUC(0-t) ([3]; 300 mg, Day 1, 2 weeks daily dosing/1 week off, mean, read-out: AUC0-24): 15700 ng·h/mL
- AUC(0-t) ([3]; 300 mg, Day 1, 2 weeks daily dosing/1 week off, mean, read-out: AUC0-t): 15700 ng·h/mL
- Vd/F [3, 10]: 3980 L
- Tmax ([3]; 300 mg, Day 1, 2 weeks daily dosing/1 week off): 6 h
- Cmax ([3]; 300 mg, Day 13, 2 weeks daily dosing/1 week off, mean): 2100 ng/mL
- AUC(0-t) ([3]; 300 mg, Day 13, 2 weeks daily dosing/1 week off, mean, read-out: AUC0-24): 40400 ng·h/mL
- AUC(0-t) ([3]; 300 mg, Day 13, 2 weeks daily dosing/1 week off, mean, read-out: AUC0-t): 40400 ng·h/mL
- Tmax ([3]; 300 mg, Day 13, 2 weeks daily dosing/1 week off): 12 h
- AUC(0-inf) [3, 11]: 59300 ng·h/mL
- half-life [3, 11]: 16.2 h
- Vd/F [3, 11]: 185 L
- AUC(0-inf) [3, 12]: 61500 ng·h/mL
- Cmax [3, 12]: 1630 ng/mL
- half-life [3, 12]: 32.5 h
- AUC(0-t) ([3]; 600 mg, Day 1, 2 weeks daily dosing/1 week off, mean, read-out: AUC0-24): 24800 ng·h/mL
- AUC(0-t) ([3]; 600 mg, Day 1, 2 weeks daily dosing/1 week off, mean, read-out: AUC0-t): 24800 ng·h/mL
- Vd/F [3, 12]: 1550 L
- Tmax ([3]; 600 mg, Day 1, 2 weeks daily dosing/1 week off): 4 h
- AUC(0-inf) [3, 13]: 86000 ng·h/mL
- Cmax [3, 13]: 2940 ng/mL
- half-life [3, 13]: 19 h
- AUC(0-t) ([3]; 600 mg, Day 13, 2 weeks daily dosing/1 week off, mean, read-out: AUC0-24): 43500 ng·h/mL
- AUC(0-t) ([3]; 600 mg, Day 13, 2 weeks daily dosing/1 week off, mean, read-out: AUC0-t): 43500 ng·h/mL
- Vd/F [3, 13]: 394 L
- Tmax ([3]; 600 mg, Day 13, 2 weeks daily dosing/1 week off): 4 h
- AUC(0-inf) [3, 14]: 109000 ng·h/mL
- Cmax [3, 14]: 1730 ng/mL
- half-life [3, 14]: 50 h
- AUC(0-t) ([3]; 850 mg, Day 1, 2 weeks daily dosing/1 week off, mean, read-out: AUC0-24): 31400 ng·h/mL
- AUC(0-t) ([3]; 850 mg, Day 1, 2 weeks daily dosing/1 week off, mean, read-out: AUC0-t): 31400 ng·h/mL
- Vd/F [3, 14]: 2150 L
- Tmax ([3]; 850 mg, Day 1, 2 weeks daily dosing/1 week off): 9 h
- AUC(0-inf) [3, 15]: 170000 ng·h/mL
- Cmax [3, 15]: 4450 ng/mL
- half-life [3, 15]: 22.4 h
- AUC(0-t) ([3]; 850 mg, Day 13, 2 weeks daily dosing/1 week off, mean, read-out: AUC0-24): 83900 ng·h/mL
- AUC(0-t) ([3]; 850 mg, Day 13, 2 weeks daily dosing/1 week off, mean, read-out: AUC0-t): 83900 ng·h/mL
- Vd/F [3, 15]: 315 L
- Tmax ([3]; 850 mg, Day 13, 2 weeks daily dosing/1 week off): 5 h
SMILES: CN1CC[C@@H](c2c(O)cc(O)c3c(=O)cc(-c4ccc(C(F)(F)F)cc4Cl)oc23)[C@@H]1CO [Voruciclib, (+)-trans-2-(2-Chloro-4-trifluoromethylphenyl)-5,7-dihydroxy-8-(2-hydroxymethyl-1-methylpyrrolidin-3-yl)-chromen-4-one]
- best response (Solid Tumors; [4]): 1 PR and 8 SD lasting 2 to 6 months
- disease control rate (Solid Tumors; [4]): 41%
- most common AEs (Solid Tumors; [5]): most common AEs involved GI tract
- synergy with Venetoclax [1]: Synergizes with Venetoclax
- viability (growth in vitro) [2]: decreased viability in all cell lines tested
- MYC positive cells (MIA PaCa-2 xenografts): decrease in MYC
